Source: patent US20210190799A1, “METHOD FOR DIAGNOSING LIVER DISEASES AND METHOD FOR SCREENING THERAPEUTIC AGENT FOR LIVER DISEASES USING CHANGES IN EXPRESSION OF TM4SF5 PROTEIN” (SEOUL NATIONAL UNIVERSITY R&DB FOUNDATION, priority 2017, published 2021)
Numbering of substitutions follows the chain as printed.

Experiments:
liver tissue [1] = assay: Liver disease mouse model induced by carbon tetrachloride (CCl4); type: in vivo, BALB/C mice
Protocol: First, a mouse model in which liver disease was induced by intraperitoneally injecting carbon tetrachloride (CCl4) once a week for 1, 4 or 16 weeks at the concentration of 1 mg/kg to 4-week-old BALB/C mice (Orient Bio, Korea) was prepared.
On the other hand, after administering CCl4 to the TM4SF5 gene KO mouse prepared in Example <7-1> as described above, the liver tissue was obtained and Mason's trichrome staining was performed, and the results are shown in FIG. 22C. As a result, it was confirmed that the accumulation of collagen was decreased in the TM4SF5 gene KO mouse compared to the control group (FIG. 22C).

c-Src protein = molecular target: T1, c-Src protein (Mus musculus, UniProt P05480); assay: Western blotting of separated liver tissue of the liver disease model mouse treated with c-Src inhibitor PP2 or control PP3; type: cell-based; conditions: FIG. 26C
T1 construct: from tissue; host or cells: liver tissue / hepatocytes of CCl4-treated BALB/C mice
Protocol: Particularly, a lysis buffer [50 mM Tris-HCl (pH 7.4), 1% NP40, 0.25% sodium dioxycholate, 150 mM NaCl, 1 mM EDTA], SDS (sodium dodecyl sulfate), Na3O4V and protease inhibitor cocktail (GenDepot) were added to the obtained liver tissue, which was left at 4° C. for 15 minutes to lyse the tissue. The lysate was centrifuged for 30 minutes under the conditions of 13,000 rpm and 4° C. to obtain a supernatant. The proteins present in the supernatant were quantified using BCA reagent (Thermo Scientifics). 4× sample buffer [4 ml of 100% glycerol, 2.4 ml of Tris-HCl (pH 6.8), 0.8 g of SDS, 4 mg of brominated phenol blue, 0.4 ml of β-mercaptoethanol and 3.1 ml of H2O, final volume: 10 ml] was added thereto, which was boiled at 100° C. for 5 minutes. SDS-PAGE was performed, and the proteins were transferred to a nitrocellulose membrane (Whatman). The membrane was pretreated in a solution containing 5% skim milk for 1 hour, and reacted with the antibodies against laminin (Abcam, UK), ACC1 (Cell Signalling, USA), SREBP1 precursor (Santa cruz, USA), mature SREBP1 (Santa cruz, USA), MTP (Santa cruz, USA), PPARα (Santa cruz, USA), pY^706STAT3 (Millipore, USA), STAT3 (Santa cruz, USA), α-tubulin (Sigma, USA) and TM4SF5 (J Clin Invest. 2008 April; 118(4): 1354-66) as the primary antibodies at 4° C. for 15 hours. […]

TM4SF5 protein = molecular target: T2, TM4SF5 protein (Homo sapiens, UniProt O14894); assay: [3H]-arginine binding to precipitated TM4SF5 protein (liquid scintillation)
T2 construct: in addition to the wild type of TM4SF5 protein (WT, full length); made in house; host or cells: HEK293FT cells, transient transfection with PEI, pull-down on streptavidin-coated beads
T2 sequence (O14894 1-197): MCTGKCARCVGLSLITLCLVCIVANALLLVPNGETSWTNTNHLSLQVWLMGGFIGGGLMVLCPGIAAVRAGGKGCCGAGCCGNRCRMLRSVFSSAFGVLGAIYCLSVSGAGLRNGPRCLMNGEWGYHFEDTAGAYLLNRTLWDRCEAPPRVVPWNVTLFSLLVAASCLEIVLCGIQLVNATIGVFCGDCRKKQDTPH
Protocol: (§1) First, HEK293FT cells (Thermo, USA) were prepared by culturing in 5% CO2 at 37° C. using DMEM containing 10% FBS and antibiotics. The prepared cells were distributed in 150 mm plates and cultured to the density of 60%, which were transfected with the construct expressing TM4SF5, MetaP2, Castrol, TM4SF1, TM4SF4 and TM4SF5 proteins constructed in Example 11 using PEI. Two days after the transfection, the desired protein was precipitated under the same conditions and methods as described in Example 11 using the beads coated with streptavidin. The precipitate was added with 10 μM [3H]-arginine (American radiolabeled chemicals, USA), followed by reaction at 4° C. for 1 hour. At this time, a sample in which 10 mM of L-arginine was added to the same amount of beads was used as the control. Upon completion of the reaction, the beads were washed 3 times with lysis buffer, to which 2 m ? of scintillation cocktail (Ultima gold, Perkin Elmer, USA) was added. The mixture was vortexed and analyzed using a liquid scintillation counter (Tri-Carb, Perkin Elmer, USA).
An experiment was performed to confirm whether the binding of TM4SF5 protein and arginine confirmed in Example <12-2> was concentration-dependent. The experiment was performed under the same conditions and methods as described in Example <12-2>, except that HEK293FT cells transformed with TM4SF5 protein were used and 0, 0.01, 0.05. 0.1 or 0.5 mM L-arginine was added.

[2] = molecular target: T3, short extracellular loop (SEL) mutant of TM4SF5 protein (Homo sapiens, UniProt O14894); assay: Arginine binding to short extracellular loop (SEL) mutant of TM4SF5; conditions: FIG. 15F
T3 construct: a short extracellular loop (SEL) fragment mutant comprising the 31st to 42nd amino acid residues from the N-terminus; made in house
Protocol: as §1
(§2) First, a short extracellular loop (SEL) fragment mutant comprising the 31st to 42nd amino acid residues from the N-terminus of the amino acid sequence constituting TM4SF5 protein (SEQ. ID. NO: 1) and a long extracellular loop (LEL) fragment mutant comprising the 113th to 157th amino acid residues from the N-terminus were prepared. […]

Castor1 protein = molecular target: T4, Castor1 protein (Homo sapiens, UniProt Q8WTX7); assay: [3H]-arginine binding to precipitated Castor1 protein
T4 construct: made in house; host or cells: HEK293FT cells, transient transfection with PEI, pull-down on streptavidin-coated beads
T4 sequence (Q8WTX7 1-329): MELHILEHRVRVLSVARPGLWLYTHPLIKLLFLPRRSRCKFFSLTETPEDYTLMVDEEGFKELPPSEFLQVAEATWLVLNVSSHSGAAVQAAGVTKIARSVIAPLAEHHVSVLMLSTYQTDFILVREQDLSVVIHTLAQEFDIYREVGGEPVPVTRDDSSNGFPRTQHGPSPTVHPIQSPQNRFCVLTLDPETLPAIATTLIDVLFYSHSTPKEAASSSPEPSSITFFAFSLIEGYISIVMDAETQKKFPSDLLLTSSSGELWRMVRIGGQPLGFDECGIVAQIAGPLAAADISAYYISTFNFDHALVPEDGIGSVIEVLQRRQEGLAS
Protocol: as §1

[3] = High arginine diet for 10 weeks: body weight and liver fat (H&E); type: in vivo, mouse; conditions: for weight gain compared to the mouse fed a normal diet: high arginine diet 10 weeks, FIG. 17A
Protocol: Particularly, the TM4SF5 gene KO mouse prepared in Example <7-1> was fed L-arginine (40 g/kg of mouse body weight) for 10 weeks.
The liver tissue was extracted from the TM4SF5 gene KO mouse fed a high arginine diet in Example <13-1>, and H&E staining was performed using the method described above.

[4] = molecular target: T5, TM4SF5 mutant, 124th to 129th amino acid residues (Homo sapiens, UniProt O14894, E129A/F128S/G125A/H127A/W124A/Y126S); assay: Arginine binding to TM4SF5 mutants of the 124th to 129th amino acid residues; conditions: FIG. 15G
T5 construct: made in house
T5 sequence (O14894 1-197 W124A/G125A/Y126S/H127A/F128S/E129A): T2 sequence (O14894 1-197) with W124A, G125A, Y126S, H127A, F128S, E129A
Protocol: as §1, §2

liver tissue [5] = assay: Liver cancer induced by injecting diethylnitrosamine (DEN); type: in vivo; conditions: transgenic mouse
Protocol: The exacerbation process of liver disease was confirmed using the transgenic mouse as follows. Particularly, the transgenic mouse was induced with liver cancer by injecting diethylnitrosamine (DEN). The liver tissue was extracted from the mouse, and H&E staining was performed. As a result, it was confirmed that liver cancer was induced (FIG. 31A). It was also confirmed that the phosphorylation of STAT3 protein and the expression of laminin were increased as the expression of TM4SF5 protein increased (FIG. 31B).

[6] = tested on: STAT3 phosphorylation and laminin protein expression; assay: Western blotting of separated liver tissue of the liver disease model mouse treated with IL-6; type: cell-based; conditions: FIG. 26A
Protocol: Particularly, a lysis buffer [50 mM Tris-HCl (pH 7.4), 1% NP40, 0.25% sodium dioxycholate, 150 mM NaCl, 1 mM EDTA], SDS (sodium dodecyl sulfate), Na3O4V and protease inhibitor cocktail (GenDepot) were added to the obtained liver tissue, which was left at 4° C. for 15 minutes to lyse the tissue. The lysate was centrifuged for 30 minutes under the conditions of 13,000 rpm and 4° C. to obtain a supernatant. The proteins present in the supernatant were quantified using BCA reagent (Thermo Scientifics). 4× sample buffer [4 ml of 100% glycerol, 2.4 ml of Tris-HCl (pH 6.8), 0.8 g of SDS, 4 mg of brominated phenol blue, 0.4 ml of β-mercaptoethanol and 3.1 ml of H2O, final volume: 10 ml] was added thereto, which was boiled at 100° C. for 5 minutes. SDS-PAGE was performed, and the proteins were transferred to a nitrocellulose membrane (Whatman). The membrane was pretreated in a solution containing 5% skim milk for 1 hour, and reacted with the antibodies against laminin (Abcam, UK), ACC1 (Cell Signalling, USA), SREBP1 precursor (Santa cruz, USA), mature SREBP1 (Santa cruz, USA), MTP (Santa cruz, USA), PPARα (Santa cruz, USA), pY^706STAT3 (Millipore, USA), STAT3 (Santa cruz, USA), α-tubulin (Sigma, USA) and TM4SF5 (J Clin Invest. 2008 April; 118(4): 1354-66) as the primary antibodies at 4° C. for 15 hours. Then, the membrane was reacted with the secondary antibody, and developed on an X-ray film using an ECL solution (Pierce, USA).
In addition, the separated liver tissue was treated with IL-6 and Western blotting was performed as described above to confirm whether the increased STAT3 phosphorylation and laminin protein expression were dependent on IL-6. […] Therefore, it was confirmed that the expressions of laminin and laminin γ2 were increased depending on TM4SF5 protein.

fat-related genes = assay: Real-time PCR of fat-related genes in normal hepatocytes treated with IL-6; type: cell-based, C57BL/6 normal mouse; conditions: FIGS. 4B and 4C
SOCS3 gene = assay: SOCS3 shRNA in primary hepatocytes, Western blotting; type: cell-based, mouse; conditions: FIG. 8E
Text: The primary hepatocytes isolated from the normal mouse (52 weeks old) were transfected with SOCS3 (NM_174466) shRNA (shSOCS3, sense 5′ […]-3′ SEQ. ID. NO: 111; antisense 5′ […]-3′ SEQ. ID. NO: 112) under the same conditions and methods as described in Example <4-1> to prepare hepatocytes wherein the expression of SOCS3 gene was suppressed, and the expression changes of SREBP1 and SOCS3 proteins and the phosphorylation changes of STAT3 were confirmed by Western blotting.

[7] = administered for 4 or 16 weeks, FIG. 22A
[8] = primary hepatic epithelial cells

ClC(Cl)(Cl)Cl [CCl4, carbon tetrachloride]
expression of TM4SF5 protein, phosphorylation of STAT3 protein and level of ECM in the liver tissue (liver tissue [1]; FIG. 23A): all increased | accumulation of collagen, Mason's trichrome staining (liver tissue [1]; TM4SF5 gene KO mouse compared to the control group, FIG. 22C): decreased | cells in the liver tissue, H&E and Mason's trichrome staining (liver tissue [1]; [7]): died | collagen between the cells (liver tissue [1]; [7]): accumulated | mRNA levels of elastin, laminin α2, α3, α5, γ2, and γ3 chains versus control group not treated (liver tissue [1]; administered for 4 or 16 weeks, FIG. 23B): higher

CC(C)(C)n1nc(-c2ccc(Cl)cc2)c2c(N)ncnc21 [PP2]
expression of laminin protein (c-Src protein): suppressed | phosphorylation of STAT3 protein (c-Src protein): suppressed

N=C(N)NCCC[C@H](N)C(=O)O [arginine, L-arginine]
concentration dependence of binding to TM4SF5 protein (TM4SF5 protein; 0, 0.01, 0.05, 0.1 or 0.5 mM L-arginine, FIGS. 15D and 15E): concentration-dependently | binding to TM4SF5 protein (TM4SF5 protein; 10 μM [3H]-arginine, 4° C., 1 hour, FIGS. 15B and 15C): directly bound | binding of TM4SF5 compared with control protein MetaP2 (TM4SF5 protein; FIG. 15B): more strongly | binding of TM4SF5 compared with TM4SF1 or TM4SF4 (TM4SF5 protein; FIG. 15C): more strongly | binding to SEL mutant of TM4SF5 protein [2]: not bound | binding of Castor1 compared with control protein MetaP2 (Castor1 protein; FIG. 15B): more strongly | binding to Castor1 protein (Castor1 protein; FIGS. 15B and 15C): directly bound | weight gain of each mouse in comparison to the starting point of the high arginine diet ([3]; TM4SF5 gene KO mouse, FIG. 17B): significantly decreased | fat accumulation in the liver tissue, H&E staining ([3]; TM4SF5 gene KO mouse, FIG. 17C): relatively suppressed | weight gain compared to the mouse fed a normal diet ([3]; TM4SF5 gene KO mouse): about 7% | fatty liver, H&E staining of liver tissue ([3]; normal mouse, FIG. 17C): fatty liver was induced | weight gain compared to the mouse fed a normal diet ([3]; normal mouse): about 25% | binding to TM4SF5 mutant of 124th to 129th residues [4]: not bound

CCN(CC)N=O [diethylnitrosamine]
liver cancer, H&E staining (liver tissue [5]; FIG. 31A): induced | phosphorylation of STAT3 protein and expression of laminin (liver tissue [5]; FIG. 31B): increased

IL-6: a cytokine associated with fatty liver
expression of collagen 1 [6]: increased | level of laminin protein [6]: not changed | phosphorylation of STAT3 protein [6]: increased | expressions of Srebp1, Srebp2, Fasn, CD36, Fabp1, Vldlr and Ldlr, the fat-related genes (fat-related genes): increased

shSOCS3: SOCS3 shRNA, SEQ. ID. NO: 111 (sense) and 112 (antisense) (sense CAACAUCUCUGUCGGAAGAUU; antisense UCUUCCGACAGAGAUGUUGUU; listed as RNA, chemistry not given here)
amount of SREBP1 protein (SOCS3 gene; [8]): decreases | phosphorylation of STAT3 protein (SOCS3 gene; [8]): increases | expression of SOCS3 gene (SOCS3 gene; primary hepatocytes): decreased
